# Results from patent US4218562A, “Antibiotic derivatives of XK-62-2” (Abbott Laboratories, priority 1978, dated 1980).
# Like-named read-outs stand apart in the source and are kept apart here.
# Tests used:
# [1] = tested on: Pseudomanas aeruginosa BMH 1; assay: Agar dilution MIC, pH 8.0: Pseudomonas aeruginosa BMH 1; type: cell-based
# [2] = tested on: Salmanella typhosa ATCC 9992; assay: microbe, parasite or virus in culture; type: cell-based
# [3] = tested on: Proteus vulgaris ATCC 6897; assay: Agar dilution MIC, pH 8.0: Proteus vulgaris ATCC 6897; type: cell-based
# Escherichia coli KY 8327 = assay: Agar dilution MIC, pH 8.0: Escherichia coli KY 8327; type: cell-based
# From the text: (§1) The former bacterium inactivates kanamycins and gentamicins by adenylation, and the latter inactivates gentamicins by acetylation.
# [4] = tested on: Krobsiella pneumoniae ATCC 10081; assay: Agar dilution MIC, pH 8.0: Krobsiella pneumoniae ATCC 10081; type: cell-based
# [5] = tested on: Bacillus subtilis No. 10707; assay: Agar dilution MIC, pH 8.0: Bacillus subtilis No. 10707; type: cell-based
# Escherichia coli ATCC 26 = assay: Agar dilution MIC, pH 8.0: Escherichia coli ATCC 26; type: cell-based
# [6] = tested on: Staphylococcus aureus ATCC 6538P; assay: Agar dilution MIC, pH 8.0: Staphylococcus aureus ATCC 6538P; type: cell-based; details: ATCC6538P
# Escherichia coli KY 8348 = assay: Agar dilution MIC, pH 8.0: Escherichia coli KY 8348; type: cell-based
# From the text: as §1
# [7] = tested on: strains of Escherichia coli having an R factor; assay: Anti-bacterial activity against Escherichia coli having an R factor; type: cell-based; details: E. coli having an R factor which shows resistance to known aminoglycoside antibiotics
# [8] = tested on: Shigella seanei ATCC 9250; assay: microbe, parasite or virus in culture; type: cell-based
# [9] = tested on: Pseudomonas aeruginosa KY 8512; assay: Agar dilution MIC, pH 7.2: Pseudomonas aeruginosa KY 8512; type: cell-based; details: KY8512, pH 7.2, read-out: Minimum Inhibitory Concentration
# From the text: ^7 produces neamycinkanamycin phosphotransferase Type
# [10] = tested on: Bacillus subtillus ATCC 6688; assay: Agar dilution MIC, pH 7.2: Bacillus subtillus ATCC 6688; type: cell-based
# [11] = tested on: Klebsiella pneumoniae No. 8045; assay: Agar dilution MIC, pH 7.2: Klebsiella pneumoniae No. 8045; type: cell-based; details: NO.8045, pH 7.2, read-out: Minimum Inhibitory Concentration
# Escherichia coli KY 8321 = assay: Agar dilution MIC, pH 7.2: Escherichia coli KY 8321; type: cell-based; details: KY8321, pH 7.2, read-out: Minimum Inhibitory Concentration
# [12] = tested on: Pseudomonas aeruginosa KY 8511; assay: Agar dilution MIC, pH 7.2: Pseudomonas aeruginosa KY 8511; type: cell-based; details: KY8511, pH 7.2, read-out: Minimum Inhibitory Concentration
# Proteus Mirabilis 1287 = assay: Agar dilution MIC, pH 7.2: Proteus Mirabilis 1287; type: cell-based; details: pH 7.2, read-out: Minimum Inhibitory Concentration
# Escherichia coli T-5 = assay: Agar dilution MIC, pH 7.2: Escherichia coli T-5; type: cell-based; details: T5, pH 7.2, read-out: Minimum Inhibitory Concentration
# Sarcina lucca ATCC 9341 = assay: Agar dilution MIC, pH 7.2: Sarcina lucca ATCC 9341; type: cell-based; details: ATCC9341, pH 7.2, read-out: Minimum Inhibitory Concentration
# [13] = tested on: Pseudomonas aeruginosa KY 8516; assay: Agar dilution MIC, pH 7.2: Pseudomonas aeruginosa KY 8516; type: cell-based; details: KY8516, pH 7.2, read-out: Minimum Inhibitory Concentration
# [14] = tested on: Pseudomonas aeruginosa KY 8510; assay: Agar dilution MIC, pH 7.2: Pseudomonas aeruginosa KY 8510; type: cell-based; details: KY8510, pH 7.2, read-out: Minimum Inhibitory Concentration
# [15] = tested on: staphylococcus aureus Smith; assay: Agar dilution MIC, pH 7.2: Staphylococcus aureus Smith; type: cell-based; details: pH 7.2, read-out: Minimum Inhibitory Concentration
# [16] = tested on: Pseudomonas aeruginosa BMH No. 1; assay: Agar dilution MIC, pH 7.2: Pseudomonas aeruginosa BMH No. 1; type: cell-based
# Escherichia coli T-2 = assay: Agar dilution MIC, pH 7.2: Escherichia coli T-2; type: cell-based; details: T2, pH 7.2, read-out: Minimum Inhibitory Concentration
# Proteus vulgaris 6897 = assay: Agar dilution MIC, pH 7.2: Proteus vulgaris 6897; type: cell-based; details: Proteus vulgaris, 6897, pH 7.2, read-out: Minimum Inhibitory Concentration
# Proteus marganii KY 4298 = assay: Agar dilution MIC, pH 7.2: Proteus marganii KY 4298; type: cell-based
# [17] = tested on: staphylococcus aureus 209P; assay: Agar dilution MIC, pH 7.2: Staphylococcus aureus 209P; type: cell-based; details: pH 7.2, read-out: Minimum Inhibitory Concentration
# Solubility = type: physicochemical
# [18] = agar-dilution method, pH 8.0, read-out: Minimum Inhibitory Concentration
# [19] = ATCC6897, agar-dilution method, pH 8.0, read-out: Minimum Inhibitory Concentration
# [20] = ATCC26, agar-dilution method, pH 8.0, read-out: Minimum Inhibitory Concentration
# [21] = ATCC9250, agar-dilution method, pH 8.0, read-out: Minimum Inhibitory Concentration
# [22] = pH 8, read-out: Minimum Inhibitory Concentration
compound,measurement,setting,value
"CNC[C@@H]1CC[C@@H](NC(=O)[C@@H](O)CCN)[C@@H](O[C@H]2[C@H](O)[C@@H](O[C@H]3OC[C@](C)(O)[C@H](NC)[C@H]3O)[C@H](N)C[C@@H]2NC(=O)[C@@H](O)CCN)O1 [IV, 3-N-2'-N-bis[L-(-)-α-hydroxy-γ-aminobutyryl]XK-62-2]",MIC,"[1]; BMH1, agar-dilution method, pH 8.0, read-out: Minimum Inhibitory Concentration",8.34 µg/mL
same,MIC,[2]; [18],0.13 µg/mL
same,MIC,[3]; [19],0.521 µg/mL
same,MIC,"Escherichia coli KY 8327; Escherichia coli, KY8327, agar-dilution method, pH 8.0, strain produces gentamicin adenyltransferase, read-out: Minimum Inhibitory Concentration",0.26 µg/mL
same,anti-bacterial activity,"Escherichia coli KY 8327; comparison of MIC in Table 1, E. coli KY 8327",strong anti-bacterial activity
same,MIC,[4]; [18],0.065 µg/mL
same,MIC,"[5]; NO.10707, agar-dilution method, pH 8.0, read-out: Minimum Inhibitory Concentration",0.016 µg/mL
same,MIC,Escherichia coli ATCC 26; [20],0.13 µg/mL
same,MIC,[6]; [18],0.13 µg/mL
same,MIC,"Escherichia coli KY 8348; Escherichia coli, KY8348, agar-dilution method, pH 8.0, strain produces gentamicin acetyltransferase Type I, read-out: Minimum Inhibitory Concentration",0.13 µg/mL
same,anti-bacterial activity,"Escherichia coli KY 8348; comparison of MIC in Table 1, E. coli KY 8348",strong anti-bacterial activity
same,anti-bacterial activity,[7],strong anti-bacterial activity
same,MIC,[8]; [21],0.26 µg/mL
"NC[C@H]1O[C@H](O[C@H]2[C@H](O)[C@@H](O[C@H]3O[C@H](CO)[C@@H](O)[C@H](N)[C@H]3O)[C@H](N)C[C@@H]2N)[C@H](O)[C@@H](O)[C@@H]1O [Kanamycin A, kanamycin A]",MIC,"[1]; BMH1, pH 8, read-out: Minimum Inhibitory Concentration",5.2 µg/mL
same,MIC,[2]; [22],0.088 µg/mL
same,MIC,[9],12.5 µg/mL
same,MIC,"[3]; ATCC6897, pH 8, read-out: Minimum Inhibitory Concentration",0.16 µg/mL
same,MIC,"[10]; ATCC6688, pH 7.2, read-out: Minimum Inhibitory Concentration",0.2 µg/mL
same,MIC,[4]; [22],0.042 µg/mL
same,MIC,[11],0.4 µg/mL
same,MIC,Escherichia coli KY 8321,100 µg/mL
same,MIC,[12],100 µg/mL
same,MIC,Proteus Mirabilis 1287,6.25 µg/mL
same,MIC,Escherichia coli T-5,1.56 µg/mL
same,MIC,Sarcina lucca ATCC 9341,6.25 µg/mL
same,MIC,"[5]; NO.10707, pH 8, read-out: Minimum Inhibitory Concentration",0.021 µg/mL
same,MIC,"Escherichia coli ATCC 26; ATCC26, pH 8, read-out: Minimum Inhibitory Concentration",0.16 µg/mL
same,MIC,[13],> 100 µg/mL
same,MIC,[14],100 µg/mL
same,MIC,[15],0.2 µg/mL
same,MIC,"[16]; BMHNO.1, pH 7.2, read-out: Minimum Inhibitory Concentration",12.5 µg/mL
same,MIC,Escherichia coli T-2,1.56 µg/mL
same,MIC,Proteus vulgaris 6897,3.12 µg/mL
same,MIC,[6]; [22],0.021 µg/mL
same,MIC,"Proteus marganii KY 4298; pH 7.2, read-out: Minimum Inhibitory Concentration",1.56 µg/mL
same,MIC,[17],0.2 µg/mL
same,MIC,"[8]; ATCC9250, pH 8, read-out: Minimum Inhibitory Concentration",0.16 µg/mL
CNC[C@@H]1CC[C@@H](N)[C@@H](O[C@H]2[C@H](O)[C@@H](O[C@H]3OC[C@](C)(O)[C@H](NC)[C@H]3O)[C@H](N)C[C@@H]2N)O1 [XK-62-2],MIC,[2]; [18],0.008 µg/mL
same,MIC,[3]; [19],0.033 µg/mL
same,MIC,"[10]; ATCC6688, agar dilution method, pH 7.2, read-out: Minimum Inhibitory Concentration",< 0.05 µg/mL
same,MIC,[4]; [18],0.004 µg/mL
same,solubility,"Solubility; in chloroform, benzene, ethyl acetate and n-hexane",insoluble
same,solubility,Solubility; in ethanol and acetone,slightly soluble
same,solubility,Solubility; in water and methanol,well soluble
same,MIC,Sarcina lucca ATCC 9341,0.4 µg/mL
same,MIC,Escherichia coli ATCC 26; [20],0.016 µg/mL
same,MIC,"[16]; BMHNO.1, agar dilution method, pH 7.2, read-out: Minimum Inhibitory Concentration",0.78 µg/mL
same,MIC,"Proteus marganii KY 4298; agar dilution method, pH 7.2, read-out: Minimum Inhibitory Concentration",0.4 µg/mL
same,MIC,[8]; [21],0.033 µg/mL
